Assay results published in US9075281B2, “Colored composition and image display structure” (FUJIFILM CORPORATION, priority 2011, dated 2015).

Key:
Assay type in all cases: physicochemical
[1] = Measurement of dynamic viscosity; conditions: 3% by mass solution in n-decane, 20° C.
Experimental: Here, the dynamic viscosity is a value obtained by measurement at 20° C., using a viscometer (type 500, manufactured by Toki Sangyo Co., Ltd.).
5. Measurement of Dynamic Viscosity
A 3% by mass solution of Exemplary Compound D8-4 in n-decane was prepared, and the viscosity of the dye solution was measured at 20° C. using a viscometer (type 500, manufactured by Toki Sangyo Co., Ltd.).
The dynamic viscosities of the dyes (Exemplary Compounds) employed in Examples were obtained in the same manner, and the results are shown in Table 8.

[2] = Measurement of relative permittivity; conditions: dye itself, extrapolated from 1, 1.5 and 2% by mass n-hexane solutions; 20° C., 40% RH, 1 kHz
Experimental: 4. Measurement of Relative Permittivity
Solutions of Exemplary Compound D8-4 in n-hexane having concentrations of 1% by mass, 1.5% by mass and 2% by mass, respectively, were prepared, and individually injected into glass cells each having transparent indium-tin-oxide electrodes and a cell gap of 10 μm. The electrical capacities of the resultant cells were measured at 20° C. and 40% RH using a type 2353 LCR meter (manufactured by NF Corporation) at a measurement frequency of 1 kHz. The electrical capacity of n-hexane was also measured as a control sample.
The relative permittivities of the dyes (Exemplary Compounds) employed in the Examples were obtained in the same manner, and the results are shown in Table 7.

[3] = Solubility of the dye in n-hexane; conditions: in n-hexane at 25° C. and 0.1 MPa
Experimental: 3. Solubility in n-Hexane
The solubility of the dye in a solvent, n-hexane, was determined as follows.
The dye to be measured was dissolved in n-hexane heated at 50° C., to prepare a saturated solution. The saturated solution obtained was then left in an environment of 25° C. and 0.1 MPa for 1 hour. The precipitated dye was filtered, and the precipitation amount was measured, from which the solubility (% by mass) of the dye in n-hexane at 25° C. and 0.1 MPa was calculated.

[4] = Color of colored composition, visually evaluated; conditions: n-hexane solution, visual evaluation
From the text: 1. Color of Colored Composition
The color of the colored composition was visually evaluated.

[5] = Absorption maximum wavelength, absorbance and absorption coefficient of the colored composition; conditions: n-hexane solution, 3% by mass or maximum concentration at which the dye completely dissolves; for Absorption Coefficient (ε): calculated by Lambert-Beer law
Experimental: 2. Absorption Maximum Wavelength, Absorbance and Absorption Coefficient of the Colored Composition
The absorption maximum wavelength (λmax) and the absorbance (abs) of the colored composition were measured using a visible-light spectrophotometer (trade name: UV-1800PC, manufactured by Shimadzu Corporation). The absorption coefficient (∈) was calculated based on the Lambert-Beer law.

Compound | Dynamic Viscosity (mPa · s) [1] | Relative Permittivity [2] | Solubility (% by Mass) [3] | Color of Solution [4] | Absorption Maximum Wavelength (λ max) [5] | Absorption Coefficient (ε) [5]
CCCCC(CC)CN(CC(CC)CCCC)c1ccc(C=C2C(=O)ON=C2C(C)CC)c(C)c1 (stereo not shown) [D1-1] | 1.2 mPa·s | 8.8 |  |  |  | 
CCCCC(CC)CN(CC(CC)CCCC)c1ccc(C=C2C(=O)N(C(C)CC)N=C2C(C)CC)c(C)c1 (stereo not shown) [D2-1] | 1.3 mPa·s | 8.5 | 8.5 % by mass | orange | 508 nm | 4.40 × 10^4
CCCCC(CC)CC1=NN(CC(CC)CCCC)C(=O)C1=Cc1ccc(N(CC)CC)cc1OCC(CC(C)CC(C)CC(C)C)CC(C)CC(C)(C)C (stereo not shown) [D2-2] |  |  | 9.8 % by mass |  | 505 nm | 4.60 × 10^4
CCCCCCN(CCCCCC)c1ccc(C=C2C(=O)N(CC(CC)CCCC)N=C2C)c(C)c1 (stereo not shown) [D2-5] | 1.2 mPa·s | 8.0 | 3.0 % by mass | orange | 510 nm | 4.30 × 10^4
CCCCC1=NN(CCCC)C(=O)C1=Cc1ccc(N(CCCC)CCCC)cc1C [D2-101, reference compound] |  |  | 0.1 % by mass | orange | 510 nm | 4.25 × 10^4
CCCCC(CC)CN(CC(CC)CCCC)c1ccc(C=C2C(=O)N(C(C)CC)C(=O)C(C#N)=C2C(C)CC)c(C)c1 (stereo not shown) [D3-1] | 1.2 mPa·s | 9.5 | 6.2 % by mass |  | 528 nm | 
CCCCC(CC)CN1C(=O)C(=Cc2ccc(N(CCCC)CCCC)cc2OCC(CC(C)CC(C)CC(C)C)CC(C)CC(C)(C)C)C(C)=C(C#N)C1=O (stereo not shown) [D3-2] |  |  | ≥ 10 or % by mass |  | 525 nm | 
CCCCCCOc1cc(N(CCCC)CCCC)ccc1C=C1C(=O)N(CCCC)C(=O)C(C#N)=C1C [D3-101, reference compound] |  |  | ≦0.01 % by mass |  |  | 
CCCCC(CC)CNc1ccc(NCC(CC)CCCC)c2c1C(=O)c1ccccc1C2=O (stereo not shown) [D4-2] | 1.3 mPa·s | 6.5 | 3.6 % by mass | blue | 640 nm | 
CCCCCCNc1ccc(NCCCCCC)c2c1C(=O)c1ccccc1C2=O [D4-101, reference compound] |  |  | 0.1 % by mass | blue | 642 nm | 
CCCCC(CC)COc1cc(N(CC(CC)CCCC)CC(CC)CCCC)ccc1N=C1C(=O)N(CC(CC)CCCC)N=C1C (stereo not shown) [D6-1] | 1.2 mPa·s | 7.5 | ≥ 10 or % by mass |  | 505 nm | 
CCCCC(CC)CC1=NN(CC(CC)CCCC)C(=O)C1=Nc1ccc(N(CC)CC)cc1OCC(C)(CC(C)CC(C)C)CC(C)CC(C)(C)C (stereo not shown) [D6-2] |  |  | ≥ 10 or % by mass |  | 500 nm | 
CCCCCCOc1cc(N(CC)CC)ccc1N=C1C(=O)N(CCCC)N=C1C [D6-101, reference compound] |  |  | 0.1 % by mass | orange | 500 nm | 
CCCCCCCCN1c2cc(C)c(/N=C3/C(C)=Nn4nc(C(C)CNC(=O)C(CCCCCC)Oc5ccc(C(C)(C)CC)cc5C(C)(C)CC)nc43)cc2C(C)CC1(C)C (stereo not shown) [D8-2] |  |  | ≥ 10 or % by mass | red | 542 nm | 
CCCCCC(CC)c1nc2n(n1)N=C(C(C)CC)/C2=N/c1ccc(N(CC(CC)CCCC)CC(CC)CCCC)cc1C (stereo not shown) [D8-4] | 1.3 mPa·s | 7.8 | ≥ 10 or % by mass | red | 562 nm | 
CCCCC(CC)CNC(=O)c1cc(N(CC(CC)CCCC)CC(CC)CCCC)ccc1/N=C1/C(CC)=Nn2nc(C(C)C)nc21 (stereo not shown) [D8-9] | 1.3 mPa·s | 7.7 |  |  |  | 
CCCCCCCCN1c2cc(C)c(/N=C3/C(C)=Nn4nc(C(C)(C)C)nc43)cc2C(C)CC1(C)C (stereo not shown) [D8-101, reference compound] |  |  | 0.8 % by mass | red | 541 nm | 
CCCCCCCCN1c2cc(C)c(/N=C3\C(C#N)=C(C(=O)OC4C(C(C)(C)C)CC(C)CC4C(C)(C)C)c4nc(C(C)CCCC)nn43)cc2C(C)CC1(C)C (stereo not shown) [D9-2] |  |  | 2.2 % by mass | blue | 616 nm | 
CCCCC(CC)CN(CC(CC)CCCC)c1ccc(/N=C2\C(C#N)=C(C(=O)OC3C(C(C)(C)C)CC(C)CC3C(C)(C)C)c3nc(C(CC)CCCC)nn32)c(C(C)CC)c1 (stereo not shown) [D9-3] |  | 7.6 |  |  |  | 
CCCCC(CC)CN(CC(CC)CCCC)c1ccc(/N=C2\C(C#N)=C(C(=O)OC3C(C(C)(C)C)CC(C)CC3C(C)(C)C)c3nc(C(C)(C)C)nn32)c(C(=O)N(CCCC)CCCC)c1 (stereo not shown) [D9-4] |  | 5.6 |  |  |  | 
CCCCC(CC)CN(CC(CC)CCCC)c1ccc(/N=C2\C(C#N)=C(C(=O)OC3C(C(C)(C)C)CC(C)CC3C(C)(C)C)c3nc(C(C)(C)C)nn32)cc1 (stereo not shown) [D9-5] | 1.2 mPa·s | 6.5 | ≥ 10 or % by mass | blue | 600 nm | 
CCCCC(CC)CNC(=O)c1cc(N(CC(CC)CCCC)CC(CC)CCCC)ccc1/N=C1\C(C#N)=C(C(=O)OC2C(C(C)(C)C)CC(C)CC2C(C)(C)C)c2nc(C(C)(C)C)nn21 (stereo not shown) [D9-6] | 1.2 mPa·s | 6.2 | ≥ 10 or % by mass | blue | 650 nm | 
CCN(CC)c1ccc(/N=C2\C(C#N)=C(C(=O)OC)c3nc(-c4ccc(C(C)(C)C)cc4)nn32)c(C)c1 [D9-101, reference compound] |  |  | ≤ 0.05 or % by mass |  |  | 
CCCCC(CC)CNC(=O)C1=CC(=Nc2ccc(N(CC(CC)CCCC)CC(CC)CCCC)cc2C)c2ccccc2C1=O (stereo not shown) [D10-1] | 1.3 mPa·s | 4.2 |  |  |  | 
